Assay results taken from patent US20050282743A1, “Molecular interactions in cells” (Arbor Vita Corporation, priority 2001, published 2005).
Ends that are not written are not given here. Peptide text beside a SMILES is read from it. * marks the point of attachment. Biotin = O=C1N[C@H]2[C@H](CS[C@H]2CCCCC(=O)*)N1

Legend:
Test in all cases: G' assay (10 uM PL peptide), results of TABLE 7 and TABLE 12
Type in all cases: binding
[1] = molecular target: T1, PDZ protein (GST-PDZ fusion) (Homo sapiens, UniProt Q86UL8)
T1 construct: made in house; host or cells: E. coli (DH5alpha, BL21 or JM109)
T1 sequence (Q86UL8 whole entry, the tested form may be a part): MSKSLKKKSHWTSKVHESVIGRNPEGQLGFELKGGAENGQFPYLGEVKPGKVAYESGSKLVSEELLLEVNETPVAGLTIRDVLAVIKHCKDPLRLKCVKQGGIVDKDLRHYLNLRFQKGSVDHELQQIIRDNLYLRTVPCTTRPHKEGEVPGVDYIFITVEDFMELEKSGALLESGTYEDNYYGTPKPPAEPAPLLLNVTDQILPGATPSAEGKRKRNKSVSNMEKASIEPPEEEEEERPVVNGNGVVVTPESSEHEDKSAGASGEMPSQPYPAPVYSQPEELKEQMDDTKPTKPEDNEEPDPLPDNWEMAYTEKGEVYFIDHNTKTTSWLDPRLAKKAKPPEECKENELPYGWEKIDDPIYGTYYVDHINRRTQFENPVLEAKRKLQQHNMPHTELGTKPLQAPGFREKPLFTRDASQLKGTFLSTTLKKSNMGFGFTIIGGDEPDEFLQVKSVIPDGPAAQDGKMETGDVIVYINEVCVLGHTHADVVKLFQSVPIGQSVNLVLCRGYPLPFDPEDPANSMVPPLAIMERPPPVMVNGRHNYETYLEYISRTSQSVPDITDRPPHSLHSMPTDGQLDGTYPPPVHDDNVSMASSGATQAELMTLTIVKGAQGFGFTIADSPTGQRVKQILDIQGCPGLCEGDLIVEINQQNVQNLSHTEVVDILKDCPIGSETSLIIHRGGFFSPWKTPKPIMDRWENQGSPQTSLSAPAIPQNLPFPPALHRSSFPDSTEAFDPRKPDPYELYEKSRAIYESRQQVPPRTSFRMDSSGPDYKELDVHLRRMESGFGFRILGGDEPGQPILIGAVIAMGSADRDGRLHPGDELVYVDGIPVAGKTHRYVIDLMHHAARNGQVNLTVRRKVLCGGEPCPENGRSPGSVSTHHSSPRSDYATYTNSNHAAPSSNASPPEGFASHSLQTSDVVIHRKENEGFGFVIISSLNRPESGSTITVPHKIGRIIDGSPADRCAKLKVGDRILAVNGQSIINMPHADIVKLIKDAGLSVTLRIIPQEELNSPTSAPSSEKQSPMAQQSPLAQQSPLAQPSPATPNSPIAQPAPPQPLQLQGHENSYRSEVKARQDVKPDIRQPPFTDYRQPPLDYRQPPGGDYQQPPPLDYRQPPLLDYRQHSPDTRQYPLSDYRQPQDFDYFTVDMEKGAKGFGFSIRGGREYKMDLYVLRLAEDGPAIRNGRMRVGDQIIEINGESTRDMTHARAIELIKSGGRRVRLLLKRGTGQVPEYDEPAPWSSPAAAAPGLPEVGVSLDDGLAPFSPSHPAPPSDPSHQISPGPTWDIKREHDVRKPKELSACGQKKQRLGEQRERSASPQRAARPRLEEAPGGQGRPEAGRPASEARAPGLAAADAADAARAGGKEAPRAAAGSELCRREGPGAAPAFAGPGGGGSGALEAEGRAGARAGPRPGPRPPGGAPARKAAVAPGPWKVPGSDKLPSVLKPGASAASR
How it was run: (§1)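 Biotin-PL peptide (N-term label), 10 uM vs GST-PDZ; protein 5 ug/ml by default. A450 nm binned: 1 = 0-1, 2 = 1-2, 3 = 2-3, 4 = 3-4, 5 = >4 on >2 repeats, 0 = no binding.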

[2] = molecular target: T2, PDZ protein (GST-PDZ fusion) (Homo sapiens, UniProt Q9P202); settings: PDZ KIAA1526, PDZ Domain 1
T2 construct: made in house; host or cells: E. coli (DH5alpha, BL21 or JM109)
T2 sequence (Q9P202 1-907): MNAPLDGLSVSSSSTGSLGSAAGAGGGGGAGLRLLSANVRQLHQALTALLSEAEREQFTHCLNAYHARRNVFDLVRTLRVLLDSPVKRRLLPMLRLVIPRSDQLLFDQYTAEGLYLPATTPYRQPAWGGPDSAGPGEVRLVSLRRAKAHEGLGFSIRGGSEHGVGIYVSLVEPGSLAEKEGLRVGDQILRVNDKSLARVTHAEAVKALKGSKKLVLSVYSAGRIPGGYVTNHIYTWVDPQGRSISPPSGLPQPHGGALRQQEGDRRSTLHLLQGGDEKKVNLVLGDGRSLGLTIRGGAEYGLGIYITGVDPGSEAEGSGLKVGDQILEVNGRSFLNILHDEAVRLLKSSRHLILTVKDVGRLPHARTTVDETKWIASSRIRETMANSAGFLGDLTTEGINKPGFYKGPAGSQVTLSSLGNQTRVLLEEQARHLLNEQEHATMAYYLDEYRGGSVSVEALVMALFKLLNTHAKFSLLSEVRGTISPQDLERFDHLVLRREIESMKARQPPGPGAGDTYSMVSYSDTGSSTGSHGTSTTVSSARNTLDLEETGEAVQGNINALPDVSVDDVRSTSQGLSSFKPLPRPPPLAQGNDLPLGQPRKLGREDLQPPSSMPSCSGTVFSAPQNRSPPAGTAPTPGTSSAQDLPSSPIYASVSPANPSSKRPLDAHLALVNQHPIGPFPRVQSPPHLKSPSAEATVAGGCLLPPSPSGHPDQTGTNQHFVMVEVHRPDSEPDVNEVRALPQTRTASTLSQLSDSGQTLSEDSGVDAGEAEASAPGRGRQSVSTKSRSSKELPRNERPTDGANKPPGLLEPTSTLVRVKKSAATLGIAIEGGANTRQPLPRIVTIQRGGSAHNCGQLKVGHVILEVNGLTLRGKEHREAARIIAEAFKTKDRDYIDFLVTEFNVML
How it was run: as §1

[3] = molecular target: T3, PDZ protein (GST-PDZ fusion) (Homo sapiens, UniProt Q9NZN5); settings: PDZ KIAA0382, PDZ Domain 1
T3 construct: made in house; host or cells: E. coli (DH5alpha, BL21 or JM109)
How it was run: as §1

[4] = molecular target: T4, PDZ protein (GST-PDZ fusion) (Homo sapiens, UniProt Q14160)
T4 construct: made in house; host or cells: E. coli (DH5alpha, BL21 or JM109)
How it was run: as §1

[5] = molecular target: T5, PDZ protein (GST-PDZ fusion) (Homo sapiens, UniProt Q15700)
T5 construct: made in house; host or cells: E. coli (DH5alpha, BL21 or JM109)
How it was run: as §1

[6] = molecular target: T6, PDZ protein (GST-PDZ fusion) (Homo sapiens, UniProt P57105); settings: PDZ Outer Membrane, PDZ Domain 1
T6 construct: made in house; host or cells: E. coli (DH5alpha, BL21 or JM109)
T6 sequence (P57105 1-145): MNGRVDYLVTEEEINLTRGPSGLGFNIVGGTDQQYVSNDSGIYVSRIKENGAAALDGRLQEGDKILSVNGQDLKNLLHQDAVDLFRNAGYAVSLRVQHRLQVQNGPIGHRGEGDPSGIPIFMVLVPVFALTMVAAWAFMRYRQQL
How it was run: as §1

[7] = molecular target: T7, PDZ protein (GST-PDZ fusion) (Homo sapiens, UniProt O14907); settings: PDZ TIP1, PDZ Domain 1
T7 construct: made in house; host or cells: E. coli (DH5alpha, BL21 or JM109)
T7 sequence (O14907 1-124): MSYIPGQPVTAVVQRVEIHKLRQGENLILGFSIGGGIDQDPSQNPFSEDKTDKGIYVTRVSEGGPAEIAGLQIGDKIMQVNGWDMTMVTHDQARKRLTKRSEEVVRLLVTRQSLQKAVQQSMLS
How it was run: as §1

[8] = molecular target: T8, PDZ protein (GST-PDZ fusion) (Homo sapiens, UniProt P78352)
T8 construct: made in house; host or cells: E. coli (DH5alpha, BL21 or JM109)
T8 sequence (P78352 whole entry, the tested form may be a part): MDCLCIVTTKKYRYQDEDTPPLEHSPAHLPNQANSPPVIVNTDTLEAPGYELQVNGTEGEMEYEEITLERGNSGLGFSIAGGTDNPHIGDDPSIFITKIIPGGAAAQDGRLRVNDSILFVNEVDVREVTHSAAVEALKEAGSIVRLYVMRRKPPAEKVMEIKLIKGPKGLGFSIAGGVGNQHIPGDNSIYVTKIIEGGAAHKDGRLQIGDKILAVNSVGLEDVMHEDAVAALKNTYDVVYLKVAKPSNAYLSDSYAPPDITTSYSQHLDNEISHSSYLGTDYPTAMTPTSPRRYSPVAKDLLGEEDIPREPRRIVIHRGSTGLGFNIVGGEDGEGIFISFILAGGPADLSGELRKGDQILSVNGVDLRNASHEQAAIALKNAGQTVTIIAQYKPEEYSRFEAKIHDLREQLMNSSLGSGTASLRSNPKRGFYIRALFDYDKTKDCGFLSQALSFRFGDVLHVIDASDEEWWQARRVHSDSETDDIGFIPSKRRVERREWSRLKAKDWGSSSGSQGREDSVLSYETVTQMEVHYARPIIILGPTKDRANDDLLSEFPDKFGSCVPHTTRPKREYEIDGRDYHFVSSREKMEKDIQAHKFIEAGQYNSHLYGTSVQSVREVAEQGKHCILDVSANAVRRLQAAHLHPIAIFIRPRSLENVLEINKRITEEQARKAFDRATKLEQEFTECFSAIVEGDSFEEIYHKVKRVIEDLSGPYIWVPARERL
How it was run: as §1

[9] = molecular target: T9, PDZ protein (GST-PDZ fusion) (Homo sapiens, UniProt O15018)
T9 construct: made in house; host or cells: E. coli (DH5alpha, BL21 or JM109)
T9 sequence (O15018 whole entry, the tested form may be a part): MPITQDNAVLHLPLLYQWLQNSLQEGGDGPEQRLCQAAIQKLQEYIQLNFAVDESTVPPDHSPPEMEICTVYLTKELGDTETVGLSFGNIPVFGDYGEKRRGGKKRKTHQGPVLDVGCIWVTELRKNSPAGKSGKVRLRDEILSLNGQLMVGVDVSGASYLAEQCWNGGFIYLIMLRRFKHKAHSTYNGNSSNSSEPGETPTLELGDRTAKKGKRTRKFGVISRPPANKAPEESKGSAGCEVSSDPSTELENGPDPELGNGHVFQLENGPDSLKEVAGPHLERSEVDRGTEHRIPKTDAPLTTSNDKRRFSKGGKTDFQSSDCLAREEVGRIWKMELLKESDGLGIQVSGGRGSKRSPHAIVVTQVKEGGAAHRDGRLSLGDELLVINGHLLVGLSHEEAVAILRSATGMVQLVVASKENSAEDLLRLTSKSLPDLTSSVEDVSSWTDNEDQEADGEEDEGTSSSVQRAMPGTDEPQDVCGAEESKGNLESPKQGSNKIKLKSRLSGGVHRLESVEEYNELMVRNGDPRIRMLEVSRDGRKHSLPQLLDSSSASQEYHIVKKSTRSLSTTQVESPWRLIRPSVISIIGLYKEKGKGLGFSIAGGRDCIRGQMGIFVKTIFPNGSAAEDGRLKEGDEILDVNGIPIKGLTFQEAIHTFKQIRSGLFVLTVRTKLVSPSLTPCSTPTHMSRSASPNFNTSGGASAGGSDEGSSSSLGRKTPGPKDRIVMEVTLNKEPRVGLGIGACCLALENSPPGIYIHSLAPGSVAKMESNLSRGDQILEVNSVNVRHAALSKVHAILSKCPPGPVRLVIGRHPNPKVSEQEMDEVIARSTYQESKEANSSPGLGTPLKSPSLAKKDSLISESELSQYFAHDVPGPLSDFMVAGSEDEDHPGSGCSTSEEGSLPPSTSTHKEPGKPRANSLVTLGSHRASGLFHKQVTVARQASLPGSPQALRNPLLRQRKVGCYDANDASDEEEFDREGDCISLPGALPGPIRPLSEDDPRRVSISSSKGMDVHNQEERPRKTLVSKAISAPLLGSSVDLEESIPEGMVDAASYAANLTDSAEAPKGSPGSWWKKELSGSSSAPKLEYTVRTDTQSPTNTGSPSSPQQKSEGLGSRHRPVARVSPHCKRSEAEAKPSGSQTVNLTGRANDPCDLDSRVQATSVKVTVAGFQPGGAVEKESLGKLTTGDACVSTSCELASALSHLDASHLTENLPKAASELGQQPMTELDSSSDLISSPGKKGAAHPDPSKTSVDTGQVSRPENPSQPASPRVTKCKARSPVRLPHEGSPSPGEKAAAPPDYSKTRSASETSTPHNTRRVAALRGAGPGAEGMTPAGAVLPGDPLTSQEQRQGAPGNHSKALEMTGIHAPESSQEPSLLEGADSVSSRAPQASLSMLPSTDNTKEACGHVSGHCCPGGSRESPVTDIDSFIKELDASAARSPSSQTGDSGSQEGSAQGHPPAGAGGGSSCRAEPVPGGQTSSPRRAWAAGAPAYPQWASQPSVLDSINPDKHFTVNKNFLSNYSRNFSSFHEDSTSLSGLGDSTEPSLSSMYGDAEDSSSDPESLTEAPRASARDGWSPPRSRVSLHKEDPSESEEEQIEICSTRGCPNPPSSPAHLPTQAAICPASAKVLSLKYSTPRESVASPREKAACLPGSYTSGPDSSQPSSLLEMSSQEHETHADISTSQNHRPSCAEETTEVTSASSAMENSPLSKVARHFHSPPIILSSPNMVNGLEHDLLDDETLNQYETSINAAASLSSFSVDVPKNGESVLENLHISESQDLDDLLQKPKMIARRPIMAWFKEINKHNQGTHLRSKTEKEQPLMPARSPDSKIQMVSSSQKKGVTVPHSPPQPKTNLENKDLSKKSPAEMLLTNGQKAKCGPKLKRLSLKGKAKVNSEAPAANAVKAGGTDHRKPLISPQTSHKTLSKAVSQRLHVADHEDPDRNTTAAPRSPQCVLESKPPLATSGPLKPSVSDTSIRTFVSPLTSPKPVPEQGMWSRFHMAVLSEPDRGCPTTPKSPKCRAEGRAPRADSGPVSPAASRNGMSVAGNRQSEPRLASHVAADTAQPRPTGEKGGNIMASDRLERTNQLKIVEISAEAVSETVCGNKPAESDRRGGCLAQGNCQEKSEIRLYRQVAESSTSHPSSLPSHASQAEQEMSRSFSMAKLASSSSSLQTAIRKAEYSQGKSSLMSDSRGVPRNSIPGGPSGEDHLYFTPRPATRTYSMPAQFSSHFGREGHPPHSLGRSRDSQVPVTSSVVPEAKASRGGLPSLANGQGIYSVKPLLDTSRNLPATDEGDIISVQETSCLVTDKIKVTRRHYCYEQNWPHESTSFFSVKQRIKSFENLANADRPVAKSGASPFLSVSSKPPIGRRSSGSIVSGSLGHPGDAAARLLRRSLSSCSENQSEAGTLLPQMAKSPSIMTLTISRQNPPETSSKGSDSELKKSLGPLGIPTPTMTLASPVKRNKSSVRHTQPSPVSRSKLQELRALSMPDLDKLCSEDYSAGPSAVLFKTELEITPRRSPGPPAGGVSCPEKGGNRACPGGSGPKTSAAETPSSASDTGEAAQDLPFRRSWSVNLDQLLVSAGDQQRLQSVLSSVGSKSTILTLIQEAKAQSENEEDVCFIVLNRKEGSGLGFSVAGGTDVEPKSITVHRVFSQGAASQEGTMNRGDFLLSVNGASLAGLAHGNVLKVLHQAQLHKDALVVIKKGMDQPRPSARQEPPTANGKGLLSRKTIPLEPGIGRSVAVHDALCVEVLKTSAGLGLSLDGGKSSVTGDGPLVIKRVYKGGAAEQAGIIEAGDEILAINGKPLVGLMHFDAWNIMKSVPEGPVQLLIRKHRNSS
How it was run: as §1

[10] = molecular target: T10, PDZ protein (GST-PDZ fusion) (Homo sapiens, UniProt Q8NI35); settings: PDZ INADL
T10 construct: made in house; host or cells: E. coli (DH5alpha, BL21 or JM109)
How it was run: as §1

[11] = PDZ Atrophin-1 Inter. Prot., PDZ Domain 5

CC(C)C[C@H](NC(=O)[C@H](C)NC(=O)[C@@H](NC(=O)[C@@H](NC(=O)[C@H](Cc1c[nH]cn1)NC(=O)[C@H](CC(C)C)NC(=O)CNC(=O)[C@H](CCC(N)=O)NC(=O)CNC(=O)CNC(=O)[C@H](C)NC(=O)[C@H](C)NC(=O)[C@H](CCCNC(=N)N)NC(=O)[C@H](C)NC(=O)[C@H](CO)NC(=O)[C@H](CC(=O)O)NC(=O)[C@H](CC(=O)O)NC(=O)[C@H](Cc1c[nH]c2ccccc12)NC(=O)[C@H](C)NC(=O)CCCC[C@@H]1SC[C@@H]2NC(=O)N[C@@H]21)C(C)C)[C@@H](C)O)C(=O)O [LPAP] (Biotin-AWDDSARAAGGQGLHVTAL-OH; C-terminus assumed) was tested, and the Classification [1, 11] was 2 (A450 nm 1-2), the Classification [2] was 1 (A450 nm 0-1) and the Classification [3] was 5 (A450 nm of 4 more than 2× repeated). The Classification ([4]; PDZ KIAA0147, PDZ Domain 1) was 3 (A450 nm 2-3).

For CSCC[C@H](NC(=O)[C@H](C)NC(=O)[C@H](CCCNC(=N)N)NC(=O)CNC(=O)[C@@H](NC(=O)[C@H](Cc1c[nH]c2ccccc12)NC(=O)[C@H](CCCNC(=N)N)NC(=O)CNC(=O)CCCC[C@@H]1SC[C@@H]2NC(=O)N[C@@H]21)[C@@H](C)O)C(=O)N[C@@H](CO)C(=O)N[C@@H](C)C(=O)N[C@@H](Cc1c[nH]c2ccccc12)C(=O)N[C@@H](CCCCN)C(=O)N1CCC[C@H]1C(=O)N[C@H](C(=O)N[C@@H](CCCNC(=N)N)C(=O)N[C@@H](CCCNC(=N)N)C(=O)N[C@@H](CCC(=O)O)C(=O)N[C@H](C(=O)N[C@@H](CCC(=O)O)C(=O)N[C@H](C(=O)O)C(C)C)[C@@H](C)O)[C@@H](C)O [HPV E6 #35 (modified)] (Biotin-GRWTGRAMSAWKPTRRETEV-OH; C-terminus assumed), the Classification ([5]; PDZ DLG2, PDZ Domain 1) was 5 (A450 nm of 4 more than 2× repeated), the Classification ([5]; PDZ DLG2, PDZ Domain 2) was 5 (A450 nm of 4 more than 2× repeated) and the Classification [6] was 5 (A450 nm of 4 more than 2× repeated). For the same compound, the Classification [1, 11] was 4 (A450 nm 3-4), the Classification ([1]; PDZ atrophin-1 interacting Protein (Atrophin-1 Inter. Prot.), PDZ Domain 1) was 5 (A450 nm of 4 more than 2× repeated) and the Classification ([1]; PDZ atrophin-1 interacting Protein, PDZ Domain 2) was 1 (A450 nm 0-1). For the same compound, the Classification ([1]; PDZ atrophin-1 interacting Protein, PDZ Domain 3) was 4 (A450 nm 3-4), the Classification [7] was 5 (A450 nm of 4 more than 2× repeated) and the Classification ([8]; PDZ PSD95, PDZ Domain 1) was 5 (A450 nm of 4 more than 2× repeated). The Classification ([8]; PDZ PSD95, PDZ Domain 1, 2, 3) was 5 (A450 nm of 4 more than 2× repeated), the Classification ([8]; PDZ PSD95, PDZ Domain 3) was 5 (A450 nm of 4 more than 2× repeated) and the Classification ([9]; PDZ AIPC, PDZ Domain 1, PL peptide 10 uM, Protein Optimal Conc 5) was 1 (A450 nm 0-1). For the same compound, the Classification ([10]; PDZ Domain 3) was 1 (A450 nm 0-1), the Classification ([10]; PDZ Domain 5) was 1 (A450 nm 0-1) and the Classification ([10]; PDZ Domain 8) was 4 (A450 nm 3-4). For the same compound, the Classification [2] was 3 (A450 nm 2-3), the Classification [3] was 2 (A450 nm 1-2) and the Classification ([4]; PDZ KIAA0147, PDZ Domain 1) was 5 (A450 nm of 4 more than 2× repeated). The Classification ([4]; PDZ KIAA0147, PDZ Domain 2) was 5 (A450 nm of 4 more than 2× repeated), the Classification ([4]; PDZ KIAA0147, PDZ Domain 3) was 4 (A450 nm 3-4) and the Classification ([4]; PDZ KIAA0147, PDZ Domain 4) was 1 (A450 nm 0-1).

“VHDAESSDEDGYDWGPATDL (Biotin-VHDAESSDEDGYDWGPATDL) [zona occludens 3 (ZO-3)]” was tested, and the Classification ([9]; PDZ AIPC, PDZ Domain 1) was 1 (A450 nm 0-1), the Classification [2] was 1 (A450 nm 0-1) and the Classification [3] was 2 (A450 nm 1-2).

CC[C@H](C)[C@H](NC(=O)CNC(=O)[C@H](CO)NC(=O)[C@H](Cc1ccccc1)NC(=O)[C@@H](NC(=O)[C@H](CS)NC(=O)CNC(=O)CNC(=O)[C@H](C)NC(=O)[C@@H]1CCCN1C(=O)[C@@H](NC(=O)[C@@H]1CCCN1C(=O)CCCC[C@@H]1SC[C@@H]2NC(=O)N[C@@H]21)[C@@H](C)CC)[C@@H](C)O)C(=O)N[C@@H](Cc1ccccc1)C(=O)N1CCC[C@H]1C(=O)N[C@H](C(=O)N[C@@H](CC(C)C)C(=O)N[C@H](C(=O)N[C@@H](CO)C(=O)N1CCC[C@H]1C(=O)N[C@@H](CC(C)C)C(=O)O)[C@@H](C)O)[C@@H](C)O [KIA 1481] (Biotin-PIPAGGCTFSGIFPTLTSPL-OH; C-terminus assumed) was tested, and the Classification [7] was 2 (A450 nm 1-2), the Classification ([10]; PDZ Domain 5) was 1 (A450 nm 0-1) and the Classification [2] was 2 (A450 nm 1-2). For the same compound, the Classification [3] was 5 (A450 nm of 4 more than 2× repeated) and the Classification ([4]; PDZ KIAA0147, PDZ Domain 1) was 2 (A450 nm 1-2).

“LNETTETQRTLLNGDLQTSI (Biotin-LNETTETQRTLLNGDLQTSI) [SSTR2 (somatostatin recepor 2)]” was tested, and the Classification [2] was 1 (A450 nm 0-1) and the Classification [3] was 1 (A450 nm 0-1).

For CC[C@H](C)[C@H](NC(=O)[C@H](CCCCN)NC(=O)[C@@H](NC(=O)[C@H](CO)NC(=O)[C@@H]1CCCN1C(=O)[C@H](Cc1ccccc1)NC(=O)[C@@H](NC(=O)[C@@H](NC(=O)[C@H](CCCNC(=N)N)NC(=O)[C@H](CCC(=O)O)NC(=O)[C@H](CC(C)C)NC(=O)[C@H](CC(C)C)NC(=O)[C@H](CC(C)C)NC(=O)[C@@H](NC(=O)CNC(=O)[C@@H](NC(=O)CCCC[C@@H]1SC[C@@H]2NC(=O)N[C@@H]21)C(C)C)[C@@H](C)O)C(C)C)[C@@H](C)CC)C(C)C)C(=O)N[C@@H](C)C(=O)N[C@H](C(=O)N[C@@H](CC(C)C)C(=O)N[C@H](C(=O)O)C(C)C)[C@@H](C)O [Adenovirus E4 Type9], the Classification ([5]; PDZ DLG2, PDZ Domain 2, Protein Optimal Conc 0.5) was 5 (A450 nm of 4 more than 2× repeated), the Classification ([6]; Protein Optimal Conc 5) was 5 (A450 nm of 4 more than 2× repeated) and the Classification ([1]; PDZ atrophin-1 interacting Protein, PDZ Domain 1, Protein Optimal Conc 0.5) was 5 (A450 nm of 4 more than 2× repeated). For the same compound, the Classification ([1]; PDZ atrophin-1 interacting Protein, PDZ Domain 3, Protein Optimal Conc 5) was 4 (A450 nm 3-4), the Classification ([8]; PDZ PSD95, PDZ Domain 1, 2, 3, PL peptide 10 uM) was 5 (A450 nm of 4 more than 2× repeated) and the Classification ([8]; PDZ PSD95, PDZ Domain 1, Protein Optimal Conc 5) was 4 (A450 nm 3-4). For the same compound, the Classification ([9]; PDZ KIAA0300, PDZ Domain 1, PL peptide 10 uM) was 1 (A450 nm 0-1), the Classification ([10]; PDZ Domain 8, PL peptide 10 uM) was 2 (A450 nm 1-2) and the Classification ([3]; PL peptide 10 uM) was 1 (A450 nm 0-1).
